Measured values from the supplement of paper PMC10307832.

Columns and labels:
Assay in all cases: relative viability (nuclei count vs DMSO), 5 days (fraction); higher = more cells survive
[1] = compound: C1=CC2=NC=CN=C2C=C1/C=C/3\C(=O)NC(=O)S3 + Cc1nc(NC(=O)N2CCC[C@H]2C(N)=O)sc1-c1ccnc(C(C)(C)C(F)(F)F)c1 [Alpelisib] (partner 2 µM)
Procedure, shortened: (§1)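 Lung cancer cell lines, seeded in 1536-well plates, were treated the following day by pin tool with a single drug or with five library-drug doses (not always all listed) in √10 steps on top of a fixed anchor-drug dose. Cells were fixed and nuclei stained in one step after 5 days, and nuclei were counted. Relative viability is the nuclei count for treated wells divided by that for vehicle wells, reported as medians of duplicate plates.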

[2] = compound: CCN1CCN(c2ccc(Nc3cc(N(C)C(=O)Nc4c(Cl)c(OC)cc(OC)c4Cl)ncn3)cc2)CC1 [BGJ398] + O=C(CCCCCCC(=O)Nc1ccccc1)NO [Vorinostat] (partner 1 µM)
Procedure, shortened: as §1

[3] = compound: C1=CC2=NC=CN=C2C=C1/C=C/3\C(=O)NC(=O)S3 + COc1cc2c(Oc3ccc(NC(=O)C4(C(=O)Nc5ccc(F)cc5)CC4)cc3F)ccnc2cc1OCCCN1CCOCC1 [Foretinib] (partner 0.25 µM)
Procedure, shortened: as §1

[4] = compound: C1=CC2=NC=CN=C2C=C1/C=C/3\C(=O)NC(=O)S3 + O=C(CCCCCCC(=O)Nc1ccccc1)NO [Vorinostat] (partner 1 µM)
Procedure, shortened: as §1

Cell Line: UMC-11
- relative viability ([1]; first compound 0.02 µM): 0.987
- relative viability ([1]; first compound 0.06325 µM): 1.19
- relative viability ([1]; first compound 0.2 µM): 0.989
- relative viability ([1]; first compound 0.6325 µM): 0.948
- relative viability ([1]; first compound 2 µM): 0.932
- relative viability ([2]; first compound 0.01 µM): 0.363
- relative viability ([2]; first compound 0.03162 µM): 0.407
- relative viability ([2]; first compound 0.1 µM): 0.376
- relative viability ([2]; first compound 0.3162 µM): 0.376
- relative viability ([2]; first compound 1 µM): 0.382
- relative viability ([3]; first compound 0.02 µM): 1.03
- relative viability ([3]; first compound 0.06325 µM): 1.03
- relative viability ([3]; first compound 0.2 µM): 1.09
- relative viability ([3]; first compound 0.6325 µM): 0.964
- relative viability ([3]; first compound 2 µM): 1.11
- relative viability ([4]; first compound 0.02 µM): 0.373
- relative viability ([4]; first compound 0.06325 µM): 0.345
- relative viability ([4]; first compound 0.2 µM): 0.485
- relative viability ([4]; first compound 0.6325 µM): 0.316
- relative viability ([4]; first compound 2 µM): 0.394
